Laboratory results taken from patent US20250212889A1, “COMPOSITION CONTAINING BACILLUS AMYLOLIQUEFACIENS STRAIN FOR ENHANCING PLANT DISEASE RESISTANCE AND USE THEREOF” (CJ CHEILJEDANG CORPORATION, priority 2022, published 2025).

Legend:
Format in all cases: in vivo
[1] = tested on: cucumbers; test: Growth promoting ability, shoot weight of cucumbers
Procedure: (§1) One week after sowing in pots, root zone treatment of each plant was performed using each 5 ml of BTH, valine, […] powder preparation, and the mixture of […] powder preparation and valine. The root zone treatment with BTH, valine, […] powder preparation, and the mixture of […] powder preparation and valine was performed twice at one week intervals, respectively. One week after the last treatment, a shoot of each treatment group was cut and weighed.

[2] = tested on: soybeans; test: Growth promoting ability, shoot weight of soybeans
Procedure: as §1

[3] = tested on: Pathogenesis-related protein (PR) 1a promoter GUS fusion construct; test: Induced resistance, PR1a promoter GUS expression; conditions: Arabidopsis thaliana leaves, 0 to 3 days after disease treatment
[4] = tested on: Pseudomonas syringae pv. lachrymans; test: Mixed treatment pot experiment, cucumber bacterial leaf blight; conditions: cucumbers, valine 0.05% in mixed treatment, compared to the untreated group
[5] = tested on: Pseudomonas syringae pv. tomato DC3000; test: Induced resistance, population of pathogens in Arabidopsis thaliana leaves; conditions: Arabidopsis thaliana leaf disc, root zone treatment, 3 days after Pst inoculation
Procedure: To this end, Arabidopsis thaliana which is a plant model was used, and Pseudomonas syringae pv. tomato DC3000 (hereinafter, referred to as Pst) causing leaf spot was used as a pathogen. To grow the plant, the surface of seeds of Arabidopsis thaliana was sterilized by immersing the seeds in 3% sodium hypochlorite (NaOCI) for 5 minutes. Thereafter, the seeds were rinsed five times using sterile water and then sown in a pot, and cultured in a plant incubator (12-hour light and 23° C. temperature conditions) for 3 weeks, followed by root zone treatment with each 50 ml of benzothiadiazole (BTH), serenade, N351 strain, valine, and mixture of N351 strain and valine. 7 days after treatment, the pathogen was inoculated and the population of pathogens was examined 0 day and 3 days later. To examine the population of pathogens, the leaves were cut into 1 cm discs using a cork borer and placed in an e-tube containing 1 ml of sterile water and beads. The leaves were ground for 2 minutes at 6000 rpm using a homogenizer (Bertin), and the population of pathogens in the juice was examined.

[6] = tested on: Phytophthora sojae; test: Mixed treatment pot experiment, soybean Phytophthora stem and root rot; conditions: soybeans, valine 0.05% in mixed treatment, compared to the untreated group
[7] = tested on: Phytophthora sojae; test: Mixed treatment glass greenhouse experiment, soybean Phytophthora stem and root rot; conditions: soybeans, compared to the untreated group
Procedure: The subject of the experiment was soybeans. Plant preparation, treatment with […] powder preparation and valine, and treatment of soybean Phytophthora stem and root rot were performed in the same manner as Example 7. […] The control value was calculated as follows. [formula]

[8] = root zone treatment 5 ml twice, one week after last treatment

Compound | growth compared to the untreated control group [1] | growth compared to the untreated control group [2] | GUS activity/expression (PR1a) [3] | control value [4] [%] | population of pathogens [5] [LogCFU/disc] | shoot weight, average [1, 8] [g] | growth further promoted compared to the untreated group ([1]; vs untreated group of 12.6 g) [g] | control value [6] [%] | control value [7] [%] | shoot weight, average [2, 8] [g] | growth further promoted compared to the untreated group ([2]; vs untreated group of 8.2 g) [g]
CSC(=O)c1cccc2nnsc12 [BTH, benzo (1,2,3)-thiadiazile-7-carbothioic acid S-methyl ester, reference compound] | growth inhibition | rather inhibited | – | – | – | – | – | – | – | – | –
CC(C)[C@H](N)C(=O)O [valine] | – | – | most strongly induced 1 day after disease treatment, and expression became weaker over time | 38 | 8 | 14 | 1.4 | 36 | 24 | 9.3 | 1.1
